# Measured values as given in PubChem BioAssay (NCI).
#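 Grown in 96-well plates, cells were treated for 48 hours with each compound at five concentrations. Insufficient inhibition: endpoint recorded as highest concentration tested. TGI is the concentration that stops growth completely.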
# Legend:
# Test in all cases: inhibition of tumour cell growth, NCI panel, 48 h
# 786-0 renal = system: 786-0 renal
# A549 NSCLC = system: A549 NSCLC
# ACHN renal = system: ACHN renal
# CAKI-1 renal = system: CAKI-1 renal
# CCRF-CEM leukemia = system: CCRF-CEM leukemia
# DU-145 prostate = system: DU-145 prostate
# HS 578T breast = system: HS 578T breast
# IGROV1 ovarian = system: IGROV1 ovarian
# NCI-H226 lung = system: NCI-H226 lung
# NCI-H460 lung = system: NCI-H460 lung
# OVCAR-8 ovarian = system: OVCAR-8 ovarian
# PC-3 prostate = system: PC-3 prostate
# SF-268 CNS = system: SF-268 CNS
# SF-539 CNS = system: SF-539 CNS
# SK-MEL-28 melanoma = system: SK-MEL-28 melanoma
# SK-MEL-5 melanoma = system: SK-MEL-5 melanoma
# T-47D breast = system: T-47D breast
# UACC-257 melanoma = system: UACC-257 melanoma
# UACC-62 melanoma = system: UACC-62 melanoma
SMILES,TGI (786-0 renal) [µM],TGI (A549 NSCLC) [µM],TGI (ACHN renal) [µM],TGI (CAKI-1 renal) [µM],TGI (CCRF-CEM leukemia) [µM],TGI (DU-145 prostate) [µM],TGI (HS 578T breast) [µM],TGI (IGROV1 ovarian) [µM],TGI (NCI-H226 lung) [µM],TGI (NCI-H460 lung) [µM],TGI (OVCAR-8 ovarian) [µM],TGI (PC-3 prostate) [µM],TGI (SF-268 CNS) [µM],TGI (SF-539 CNS) [µM],TGI (SK-MEL-28 melanoma) [µM],TGI (SK-MEL-5 melanoma) [µM],TGI (T-47D breast) [µM],TGI (UACC-257 melanoma) [µM],TGI (UACC-62 melanoma) [µM]
Cc1ccc(SCC(CF)OC(C)n2cnc3c(Cl)nc(N)nc32)cc1 (stereo not drawn),> 100,> 100,> 100,> 100,> 100,> 100,> 100,> 100,> 100,> 100,> 100,> 100,> 100,> 100,> 100,53.7,> 100,> 100,> 100
CC(Cc1cccc2c1Nc1ccccc1S2)N(C)CCO (stereo not drawn),> 100,> 100,> 100,> 100,> 100,> 100,> 100,> 100,> 100,> 100,> 100,> 100,> 100,> 100,> 100,> 100,> 100,> 100,> 100
C(=N\NC1=NCCN1)/c1cccc2cc3ccncc3nc12,4.51,20.2,13.6,14.1,3.8,19.9,61.3,15.8,21.2,20.5,5.15,13.7,14.2,21.2,22.8,22.9,12.7,24.6,31.4
Cc1c2ccccc2c(C2C3C(=O)N(c4cccc5ccccc45)C(=O)C3ON2Cc2ccc(CC(N)=O)cc2)c2ccccc12 (stereo not drawn),> 50,> 50,> 50,> 50,> 50,> 50,> 50,> 50,46.5,48.6,> 50,> 50,> 50,> 50,> 50,> 50,> 50,37,47.3
CCCNCC(O)CNc1ccc(NCC(O)CNCCC)c2c1C(=O)c1ccccc1C2=O (stereo not drawn),8.21,4.64,18.3,28.7,4.35,20.2,16.6,7.87,6.24,8.48,8.51,4.7,5.66,5.11,9.69,9.76,14.6,17.6,4.95
CCOC(=O)C1=CNC(C(=O)OCC)C1c1cccn1-c1ccccc1 (stereo not drawn),> 100,> 100,> 100,> 100,77,> 100,> 100,> 100,54.2,> 100,> 100,71.3,> 100,47.1,76.3,31.5,> 100,> 100,> 100
O=C1CCSc2nc(-c3ccc4c(c3)OCO4)nn21,> 10,> 10,> 10,> 10,> 10,> 10,> 10,> 10,> 10,> 10,> 10,> 10,> 10,> 10,> 10,> 10,> 10,> 10,> 10
CC(=O)OCC1OC(OC(C)=O)C(Nc2ncc(-c3ccc(C)cc3)s2)C(OC(C)=O)C1OC(C)=O (stereo not drawn),40.1,47.9,27.7,31.2,55,> 100,69.5,36.4,50.4,40.7,69.9,45.3,36.2,37.7,31.2,29.2,48.8,49.1,29
CO[C@H]1O[C@@H]2OC3(C)CCC4[C@H](C)CCC([C@H]1C)[C@]42OO3 (stereo partly drawn),> 100,> 100,> 100,> 100,> 100,> 100,> 100,> 100,> 100,> 100,> 100,> 100,> 100,> 100,> 100,> 100,> 100,> 100,> 100
O=C(c1ccccc1)C(Nc1ccc2ccccc2c1)c1ccccc1 (stereo not drawn),> 100,> 100,> 100,> 100,51.2,> 100,> 100,> 100,> 100,> 100,> 100,98.7,> 100,> 100,> 100,36,> 100,48.2,> 100
O=C(O)c1cccc(OCCOc2cccc(C(=O)O)c2[N+](=O)[O-])c1[N+](=O)[O-],> 100,> 100,> 100,> 100,> 100,> 100,> 100,> 100,> 100,> 100,> 100,> 100,> 100,> 100,> 100,> 100,> 100,> 100,> 100
CC[C@@H]1CC[C@@H]2[C@H](CC[C@]3(C)[C@@H](OC(C)=O)CC[C@@H]23)[C@H]1C(=O)OC,47.3,70.8,> 100,> 100,47.9,86.1,> 100,89.8,38,51.6,76.9,67.3,81.1,38.3,> 100,27.7,66.8,54.3,49.4
